Columns and labels:
[1] = system: GBM cells; assay: Incucyte caspase-3/7 apoptosis assay; format: cell-based, human; conditions: three serum-cultured GBM cell lines, increasing concentrations
Procedure: For the apoptosis assay, cells were plated in a 96-wells plate at low cell densities (500–1000 cells/well) and allowed to adhere overnight under standard culture conditions (37 °C, 5% CO₂). After 24 h, cells were exposed to different concentrations of NTRC0066-0. Apoptosis was measured using the Incucyte® Caspase-3/7 Dye for Apoptosis (Sartorius AG, Göttingen, Germany), which was added at a final concentration of 2.5 µM. As a positive control for the induction of Caspase 3/7-mediated apoptosis, cells were treated with a combination of S63845 and navitoclax (final concentrations 3 µM and 1.5 µM, respectively). Apoptotic cell death was assessed in real time with the Incucyte® S3 system (Sartorius AG). The Incucyte® was configured to capture phase-contrast images using a 10x objective lens. Data were collected and analyzed using the Incucyte® S3 software. Fluorescence signal confluence was quantified and normalized to the total phase-contrast confluence in each well to take variations in cell density into account. Curves were plotted using GraphPad Prism v10.3 (GraphPad Software).

[2] = system: LN-428; assay: Cell survival assay (crystal violet), continuous exposure; format: cell-based, human; conditions: LN-428, continuous exposure, Fig. 1A
Procedure: (§1) Wells were pre-coated with poly-ornithine (15 µg/ml for 3 h at room temperature) and subsequently with laminin (7.5 µg/ml for 1 h at 37 °C) prior to seeding GSCs to make them adherent without inducing differentiation. […] Cells were plated in 24-wells plates at low cell densities (2,000–10,000 cells/well) and exposed to different concentrations of NTRC0066-0 24 h later. NTRC0066-0 was dissolved in DMSO (Sigma-Aldrich) for in vitro experiments and final DMSO concentrations never exceeded 0.1%. When untreated wells were confluent (approximately 6–10 days after seeding, dependent on the cell line), cells were fixed and stained using a solution containing 0.5% crystal violet (w/v; Sigma-Aldrich) and 6% glutaraldehyde (v/v; Honeywell, Morris Plains, NJ). Plates were imaged using a Chemi-Doc XRS+ (Bio-rad, Hercules, CA) and analyzed using the Colony Area plugin of ImageJ [24]. IC50 curves were fitted and plotted using the ‘log(inhibitor) vs. normalized response – Variable slope’ fitting procedure of GraphPad Prism v10.3 (GraphPad Software, La Jolla, CA). Monotherapy curves were corrected for untreated controls.

[3] = system: E98; assay: as above; format: cell-based, human; conditions: Fig. 1A
Procedure: as §1

[4] = system: U87; assay: as above; format: cell-based, human; conditions: Fig. 1A
Procedure: as §1

[5] = system: T98G; assay: as above; format: cell-based, human; conditions: Fig. 1A
Procedure: as §1

[6] = system: LN-751; assay: as above; format: cell-based, human; conditions: LN-751, continuous exposure, Fig. 1A
Procedure: as §1

[7] = system: HS683; assay: as above; format: cell-based, human; conditions: Fig. 1A
Procedure: as §1

[8] = Pharmacokinetics and brain penetration in wild-type FVB mice; format: in vivo
Procedure: The pharmacokinetics of NTRC 0066-0 were analyzed in wild-type (WT), Abcb1a/b^−/−, Abcg2^−/−, Abcb1a/b^−/−;Abcg2^−/− and Abcb1a/b^−/−;Abcg2^−/−;Abcc4^−/− FVB mice. All knockout mice strains have been developed at the Netherlands Cancer Institute. For i.v. administration, NTRC0066-0 was formulated in DMSO: Cremophor EL: saline (1:1:8 v/v) and injected at a dose of 5 mg/kg. For i.p and oral administration, NTRC0066-0 was administered at 5, 10 or 20 mg/kg as indicated. Serial blood sampling was done by tail vein bleeding at specific time points. At terminal time points, blood was drawn by cardiac puncture followed by tissue collection. Plasma was obtained from whole blood by centrifugation (5 min, 5,000 rpm, 4 °C) and tissues were weighed and homogenized using a FastPrep®-24 (MP-Biomedicals, NY) in 1% (w/v) bovine serum albumin (Sigma-Aldrich) in water.
NTRC 0066-0 was extracted from in vitro and in vivo samples using liquid–liquid extraction with diethyl ether. Another MPS-1 inhibitor, Compound 5 (Cpd-5), was added to the samples as an internal standard. The dried organic phase was reconstituted in 30% methanol in water (v/v). Samples were measured using an LC-MS/MS system comprising an UltiMate 3000 LC Systems (Dionex, Sunnyvale, CA) and an API 4000 mass spectrometer (Sciex, Framingham, MA). Samples were injected on to a Securityguard C18 pre-column (Phenomenex, Utrecht, The Netherlands) connected to a ZORBAX Extend-C18 column (Agilent, Santa Clara, CA). Elution was done at a flow rate of 0.2 mL/min using a 5 min gradient from 20% to 95% B (mobile phase A was 0.1% HCOOH in water (v/v) and mobile phase B was methanol). 95% B was maintained for 3 min followed by re-equilibration at 20% B. Multiple reaction monitoring parameters were 566.2/391.4 (NTRC0066-0) and 581.6/397.0 (internal standard). Analyst® 1.6.2 software (Sciex) was used for system control and data analysis.
PK solver was used to determine pharmacokinetic parameters. The standard error of the oral bioavailability was calculated using the formula below: […]

CCc1cccc(CC)c1NC(=O)c1ccn2c1CCc1cnc(Nc3ccc(N4CCN(C)CC4)cc3OC)nc1-2 [NTRC 0066-0]
Induction of apoptosis (caspase 3/7 activation) [1]: did not induce apoptosis | IC50 [2]: 39 nM | IC50 [3]: 23 nM | IC50 [4]: 31 nM | IC50 [5]: 18 nM | IC50 [6]: 37 nM | IC50 [7]: 42 nM | Oral bioavailability (relative to i.p.) ([8]; WT mice): about 50% | Brain-plasma ratio ([8]; WT mice, 1 h after 5 mg/kg i.v.): approximately 4 | Brain-to-plasma ratio ([8]; WT mice, 24 h after 10 mg/kg p.o. or i.p.): approximately 20 | Cmax ([8]; WT, i.p. 10 mg/kg): 780 ± 130 nM | MRT ([8]; WT, i.p. 10 mg/kg): 3.2 ± 0.4 h | t1/2 ([8]; WT, i.p. 10 mg/kg): 2.5 ± 0.2 h | tmax ([8]; WT, i.p. 10 mg/kg): 0.5 ± 0.3 h | Plasma AUCi.p. ([8]; WT, i.p. 10 mg/kg, 0-∞): 2.8 ± 0.45 µM·h | Cmax ([8]; WT, p.o. 10 mg/kg): 180 ± 6.7 nM | MRT ([8]; WT, p.o. 10 mg/kg): 4.7 ± 0.2 h | t1/2 ([8]; WT, p.o. 10 mg/kg): 2.8 ± 0.2 h | tmax ([8]; WT, p.o. 10 mg/kg): 1.8 ± 1.5 h | F (bioavailability) ([8]; WT, p.o. 10 mg/kg relative to i.p.): 59 ± 11% | Plasma AUCp.o. ([8]; WT, p.o. 10 mg/kg, 0-∞): 1.7 ± 0.15 µM·h

Reference: publication PMC12909347, “Disconnect between in vitro and in vivo efficacy of the MPS1 inhibitor NTRC 0066-0 against glioblastoma” (Cellular Oncology, 2026)
